# Read-outs that look alike come from different tables or passages of the source.
# Columns and labels:
# [1] = plasma protein binding, reported; cited from earlier work
# CD19 CAR T cells = assay: CAR T cell cytokine production (Luminex) under CD19 K562, KIP-1 or CD2/3/28 stimulation; details: for IC50: Homo sapiens, T-cell
# [2] = Clinical pharmacokinetic data converted to in vitro concentrations; details: human, in vivo
# Text: Given the different potencies of the JAK inhibitors and different pharmacokinetic properties for each drug, it was sought to test each drug at a relevant range of physiological concentrations based on clinical dosing and reported pharmacokinetic data from repeat dose studies. Reported Cmax values in patient sera were converted to in vitro concentrations and adjusted for reported plasma protein binding.
smiles,measurement,setting,value
O=C(Nc1nc2cccc(-c3ccc(CN4CCS(=O)(=O)CC4)cc3)n2n1)C1CC1 [filgotinib],Protein binding,[1],~42%
same,suppression of cytokine production from CAR T cells (breadth and magnitude),CD19 CAR T cells,less effective in the breadth of cytokines suppressed and its potency to suppress particular cytokines
same,"Suppression of cytokine production, GMCSF (IC50)","CD19 CAR T cells; CD3/CD28 stimulation, 72 h",Suppress
same,IC50,"CD19 CAR T cells; 72 h, read-out: Suppression of cytokine production, GMCSF (IC50), K562-CD19 stimulation, 72 h",> 10000 nM
same,IC50,"CD19 CAR T cells; 72 h, read-out: Suppression of cytokine production, GMCSF (IC50), KIP-1 stimulation, 72 h",6440 nM
same,IC50,"CD19 CAR T cells; 72 h, read-out: Suppression of cytokine production, GzB (IC50), CD3/CD28 stimulation, 72 h",7650 nM
same,IC50,"CD19 CAR T cells; 72 h, read-out: Suppression of cytokine production, GzB (IC50), K562-CD19 stimulation, 72 h",> 10000 nM
same,IC50,"CD19 CAR T cells; 72 h, read-out: Suppression of cytokine production, GzB (IC50), KIP-1 stimulation, 72 h",> 10000 nM
same,IC50,"CD19 CAR T cells; 72 h, read-out: Suppression of cytokine production, IFNg (IC50), CD3/CD28 stimulation, 72 h",> 10000 nM
same,IC50,"CD19 CAR T cells; 72 h, read-out: Suppression of cytokine production, IFNg (IC50), K562-CD19 stimulation, 72 h",> 10000 nM
same,IC50,"CD19 CAR T cells; 72 h, read-out: Suppression of cytokine production, IFNg (IC50), KIP-1 stimulation, 72 h",> 10000 nM
same,IC50,"CD19 CAR T cells; 72 h, read-out: Suppression of cytokine production, IL-2Ra (IC50), CD3/CD28 stimulation, 72 h",1890 nM
same,IC50,"CD19 CAR T cells; 72 h, read-out: Suppression of cytokine production, IL-2Ra (IC50), K562-CD19 stimulation, 72 h",4820 nM
same,IC50,"CD19 CAR T cells; 72 h, read-out: Suppression of cytokine production, IL-2Ra (IC50), KIP-1 stimulation, 72 h",277 nM
same,IC50,"CD19 CAR T cells; 72 h, read-out: Suppression of cytokine production, IL-6 (IC50), CD3/CD28 stimulation, 72 h",1710 nM
same,IC50,"CD19 CAR T cells; 72 h, read-out: Suppression of cytokine production, IL-6 (IC50), KIP-1 stimulation, 72 h",716 nM
same,IC50,"CD19 CAR T cells; 72 h, read-out: Suppression of cytokine production, IL-8 (IC50), CD3/CD28 stimulation, 72 h",> 10000 nM
same,IC50,"CD19 CAR T cells; 72 h, read-out: Suppression of cytokine production, IL-8 (IC50), K562-CD19 stimulation, 72 h",543 nM
same,IC50,"CD19 CAR T cells; 72 h, read-out: Suppression of cytokine production, IL-8 (IC50), KIP-1 stimulation, 72 h",564 nM
same,IC50,"CD19 CAR T cells; 72 h, read-out: Suppression of cytokine production, IL-10 (IC50), CD3/CD28 stimulation, 72 h",2010 nM
same,IC50,"CD19 CAR T cells; 72 h, read-out: Suppression of cytokine production, IL-10 (IC50), K562-CD19 stimulation, 72 h",397 nM
same,IC50,"CD19 CAR T cells; 72 h, read-out: Suppression of cytokine production, IL-10 (IC50), KIP-1 stimulation, 72 h",191 nM
same,IC50,"CD19 CAR T cells; 72 h, read-out: Suppression of cytokine production, MCP-1 (IC50), CD3/CD28 stimulation, 72 h",563 nM
same,IC50,"CD19 CAR T cells; 72 h, read-out: Suppression of cytokine production, MCP-1 (IC50), K562-CD19 stimulation, 72 h",858 nM
same,IC50,"CD19 CAR T cells; 72 h, read-out: Suppression of cytokine production, MCP-1 (IC50), KIP-1 stimulation, 72 h",559 nM
same,IC50,"CD19 CAR T cells; 72 h, read-out: Suppression of cytokine production, MIG (IC50), CD3/CD28 stimulation, 72 h",> 10000 nM
same,IC50,"CD19 CAR T cells; 72 h, read-out: Suppression of cytokine production, MIG (IC50), K562-CD19 stimulation, 72 h",1570 nM
same,IC50,"CD19 CAR T cells; 72 h, read-out: Suppression of cytokine production, MIG (IC50), KIP-1 stimulation, 72 h",1380 nM
same,IC50,"CD19 CAR T cells; 72 h, read-out: Suppression of cytokine production, MIP-1a (IC50), CD3/CD28 stimulation, 72 h",> 10000 nM
same,IC50,"CD19 CAR T cells; 72 h, read-out: Suppression of cytokine production, MIP-1a (IC50), K562-CD19 stimulation, 72 h",> 10000 nM
same,IC50,"CD19 CAR T cells; 72 h, read-out: Suppression of cytokine production, MIP-1a (IC50), KIP-1 stimulation, 72 h",> 10000 nM
same,IC50,"CD19 CAR T cells; 72 h, read-out: Suppression of cytokine production, MIP-1b (IC50), CD3/CD28 stimulation, 72 h",> 10000 nM
same,IC50,"CD19 CAR T cells; 72 h, read-out: Suppression of cytokine production, MIP-1b (IC50), K562-CD19 stimulation, 72 h",9820 nM
same,IC50,"CD19 CAR T cells; 72 h, read-out: Suppression of cytokine production, MIP-1b (IC50), KIP-1 stimulation, 72 h",> 10000 nM
same,IC50,"CD19 CAR T cells; 72 h, read-out: Suppression of cytokine production, Perforin (IC50), CD3/CD28 stimulation, 72 h",5460 nM
same,IC50,"CD19 CAR T cells; 72 h, read-out: Suppression of cytokine production, Perforin (IC50), K562-CD19 stimulation, 72 h",> 10000 nM
same,IC50,"CD19 CAR T cells; 72 h, read-out: Suppression of cytokine production, Perforin (IC50), KIP-1 stimulation, 72 h",2110 nM
same,IC50,"CD19 CAR T cells; 72 h, read-out: Suppression of cytokine production, TNFa (IC50), CD3/CD28 stimulation, 72 h",793 nM
same,IC50,"CD19 CAR T cells; 72 h, read-out: Suppression of cytokine production, TNFa (IC50), K562-CD19 stimulation, 72 h",7230 nM
same,IC50,"CD19 CAR T cells; 72 h, read-out: Suppression of cytokine production, TNFa (IC50), KIP-1 stimulation, 72 h",2240 nM
same,"Suppression of cytokine production, IL-6 (IC50)","CD19 CAR T cells; K562-CD19 stimulation, 72 h",Suppress
same,PPB adj. in Vitro concentration,[2],1.28 µM
same,clinically relevant dose level (in vitro concentration),[2],~1 µM
